Reference: patent publication US20030176314A1, “Compounds for the treatment of pain” (priority 2001, published 2003)

molecular target: T1, serotonin (5HT) transporter (Rattus norvegicus, UniProt P31652); test: Binding at native serotonin transporter (5HT uptake); details: Table 8
T1 construct: evaluated at native, tissue-derived transporters; from tissue
Procedure: (§1) Transporters: The binding properties of compounds were evaluated at native, tissue-derived transporters, namely serotonin (5HT) transporter and norepinephrine (NE) transporter, according to protocols described in Owens (1997), the disclosure of which is hereby incorporated by reference in its entirety into this application.
(§2) The binding affinity (Ki) of these compounds were tested according to the protocols described herein at the following receptors; human α1A, α1B, α1D, α2A, α2B, and α2C adrenergic receptors; human Y1, Y2, Y4, and Y5 receptors; and N-Methyl-D-aspartic acid (NMDA) receptor channels. The binding interactions of these compounds were additionally tested at the norepinephrine (NE) transporter (NE uptake) and serotonin (5-hydroxytryptamine (5HT)) transporter (5HT uptake) according to protocols described herein

T1 sequence (P31652 whole entry): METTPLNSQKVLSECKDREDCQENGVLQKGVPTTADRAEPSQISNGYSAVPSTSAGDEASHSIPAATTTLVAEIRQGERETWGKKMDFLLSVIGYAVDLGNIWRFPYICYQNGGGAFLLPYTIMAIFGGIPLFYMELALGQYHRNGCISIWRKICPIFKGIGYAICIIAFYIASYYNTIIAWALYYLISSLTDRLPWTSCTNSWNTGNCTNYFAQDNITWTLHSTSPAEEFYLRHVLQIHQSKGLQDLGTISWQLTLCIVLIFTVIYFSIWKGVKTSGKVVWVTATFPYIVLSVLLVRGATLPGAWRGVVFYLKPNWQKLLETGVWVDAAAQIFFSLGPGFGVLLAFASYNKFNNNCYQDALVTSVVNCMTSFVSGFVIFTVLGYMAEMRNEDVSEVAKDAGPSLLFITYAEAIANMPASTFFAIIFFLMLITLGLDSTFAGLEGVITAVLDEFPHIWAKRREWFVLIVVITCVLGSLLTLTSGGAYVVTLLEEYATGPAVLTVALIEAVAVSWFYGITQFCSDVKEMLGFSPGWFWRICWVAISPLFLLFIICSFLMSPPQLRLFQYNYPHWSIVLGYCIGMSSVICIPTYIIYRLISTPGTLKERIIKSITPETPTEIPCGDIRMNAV

Compound	Ki [µM]
Cc1nc(NC(=N)N)nc2ccc(Cl)cc12 [Compound 1013A, N-(6-chloro-4-methyl-2-quinazolinyl)guanidine]	2.02
Cc1ccc2c(C)nc(NC(=N)N)nc2c1 [Compound 3001A, N-(4,7-dimethyl-2-quinazolinyl)guanidine]	22.6

molecular target: T2, rat NPFF2 receptor (Rattus norvegicus, UniProt Q9EQD2); test: Functional assay (agonist potency, intrinsic activity) at cloned rat NPFF2 receptor; type: cell-based; details: Table 4; percent of maximum response elicited by neuropeptide FF
T2 construct: The full-length NPFF2 was amplified from rat spinal cord cDNA; expressed in transfected cells; host or cells: not given
T2 sequence (Q9EQD2 whole entry): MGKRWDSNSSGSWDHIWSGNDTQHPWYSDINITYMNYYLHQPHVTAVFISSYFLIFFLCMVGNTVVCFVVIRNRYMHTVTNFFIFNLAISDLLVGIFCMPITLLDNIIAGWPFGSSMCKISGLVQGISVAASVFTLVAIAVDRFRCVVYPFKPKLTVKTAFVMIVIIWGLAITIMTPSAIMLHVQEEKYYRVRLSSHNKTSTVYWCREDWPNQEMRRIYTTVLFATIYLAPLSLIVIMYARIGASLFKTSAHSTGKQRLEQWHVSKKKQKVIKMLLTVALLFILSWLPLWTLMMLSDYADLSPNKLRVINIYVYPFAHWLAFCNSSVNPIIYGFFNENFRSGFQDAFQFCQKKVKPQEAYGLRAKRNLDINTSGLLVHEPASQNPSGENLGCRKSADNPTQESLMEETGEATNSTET

Compound	Functional Activity rNPFF2 I.A. % [%]
COc1ccc(Br)cc1S(=O)(=O)N[C@@H](CCCNC(=N)N)C(=O)N[C@@H](Cc1ccccc1)C(N)=O [Compound 1025B]	33
COc1ccc(C)cc1S(=O)(=O)N[C@@H](CCCNC(=N)N)C(=O)N[C@@H](Cc1ccccc1)C(N)=O [Compound 2003B]	52
N1-[(1S)-2-Amino-1-benzyl-2-oxoethyl]-(2S)-{[amino(imino)methyl]amino}-2-[pentafluorophenyl)sulfonyl]amino}pentanamide [Compound 1024B]	43

same assay, conditions: Table 4; read-out: Functional Activity rNPFF2 EC50

Compound	EC50 [µM]
COc1ccc(Br)cc1S(=O)(=O)N[C@@H](CCCNC(=N)N)C(=O)N[C@@H](Cc1ccccc1)C(N)=O [Compound 1025B]	> 3.16
COc1ccc(C)cc1S(=O)(=O)N[C@@H](CCCNC(=N)N)C(=O)N[C@@H](Cc1ccccc1)C(N)=O [Compound 2003B]	> 3.16
N1-[(1S)-2-Amino-1-benzyl-2-oxoethyl]-(2S)-{[amino(imino)methyl]amino}-2-[pentafluorophenyl)sulfonyl]amino}pentanamide [Compound 1024B]	> 3.16

same assay, conditions: Table 5; percent of maximum response elicited by neuropeptide FF

Compound	Functional Activity rNPFF2 I.A. % [%]
N=C(N)NCCC[C@H](NS(=O)(=O)c1ccc2ccccc2c1)C(=O)N[C@H](Cc1ccccc1)C(N)=O [Compound 1029B]	86

same assay, conditions: Table 5; read-out: Functional Activity rNPFF2 EC50

Compound	EC50 [µM]
N=C(N)NCCC[C@H](NS(=O)(=O)c1ccc2ccccc2c1)C(=O)N[C@H](Cc1ccccc1)C(N)=O [Compound 1029B]	> 3.16

same assay, conditions: Table 7, intrinsic activity

Compound	rNPFF2 IA [% NPFF]
Cc1nc(NC(=N)N)nc2ccc(Cl)cc12 [Compound 1013A, N-(6-chloro-4-methyl-2-quinazolinyl)guanidine]	52

same assay, conditions: agonist: IA>15%; antagonist: Ki≦1.2 mM and IA≦15% at the rat cloned NPFF receptors

Compound	classification as agonist or antagonist at the NPFF2 receptor
COc1ccc(C)cc1S(=O)(=O)N[C@@H](CCCNC(=N)N)C(=O)N[C@@H](Cc1ccccc1)C(N)=O [Compound 2003B]	agonists
Cc1ccc2c(C)nc(NC(=N)N)nc2c1 [Compound 3001A, N-(4,7-dimethyl-2-quinazolinyl)guanidine]	antagonists

molecular target: T3, norepinephrine (NE) transporter (Rattus norvegicus, UniProt Q63380); test: Binding at native norepinephrine transporter (NE uptake); details: Table 8
T3 construct: evaluated at native, tissue-derived transporters; from tissue
T3 sequence (Q63380 1-617): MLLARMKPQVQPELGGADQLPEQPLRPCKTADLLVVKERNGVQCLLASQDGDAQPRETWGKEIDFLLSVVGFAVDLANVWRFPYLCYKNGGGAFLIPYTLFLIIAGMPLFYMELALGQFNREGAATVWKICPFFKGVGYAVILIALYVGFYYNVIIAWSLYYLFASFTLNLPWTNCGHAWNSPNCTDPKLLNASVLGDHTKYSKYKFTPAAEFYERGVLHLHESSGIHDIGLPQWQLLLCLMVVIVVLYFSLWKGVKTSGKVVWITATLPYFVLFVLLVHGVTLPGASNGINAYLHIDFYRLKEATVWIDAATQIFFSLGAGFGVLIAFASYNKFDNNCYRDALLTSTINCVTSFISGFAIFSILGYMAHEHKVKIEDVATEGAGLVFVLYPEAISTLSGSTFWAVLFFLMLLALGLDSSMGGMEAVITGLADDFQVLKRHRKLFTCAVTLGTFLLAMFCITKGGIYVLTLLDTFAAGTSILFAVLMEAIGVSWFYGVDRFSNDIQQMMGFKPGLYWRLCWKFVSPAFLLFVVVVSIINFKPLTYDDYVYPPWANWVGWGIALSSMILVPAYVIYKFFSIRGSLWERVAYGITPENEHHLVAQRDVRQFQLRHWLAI
Procedure: as §1, §2

Compound	Ki [µM]
Cc1nc(NC(=N)N)nc2ccc(Cl)cc12 [Compound 1013A, N-(6-chloro-4-methyl-2-quinazolinyl)guanidine]	41.2
Cc1ccc2c(C)nc(NC(=N)N)nc2c1 [Compound 3001A, N-(4,7-dimethyl-2-quinazolinyl)guanidine]	21.4

molecular target: T4, rat NPFF1 receptor (Rattus norvegicus, UniProt Q9EP86); test: Functional assay (agonist potency, intrinsic activity) at cloned rat NPFF1 receptor; type: cell-based; details: Table 4; percent of maximum response elicited by neuropeptide FF
T4 construct: expressed in transfected cells; host or cells: not given
T4 sequence (Q9EP86 whole entry): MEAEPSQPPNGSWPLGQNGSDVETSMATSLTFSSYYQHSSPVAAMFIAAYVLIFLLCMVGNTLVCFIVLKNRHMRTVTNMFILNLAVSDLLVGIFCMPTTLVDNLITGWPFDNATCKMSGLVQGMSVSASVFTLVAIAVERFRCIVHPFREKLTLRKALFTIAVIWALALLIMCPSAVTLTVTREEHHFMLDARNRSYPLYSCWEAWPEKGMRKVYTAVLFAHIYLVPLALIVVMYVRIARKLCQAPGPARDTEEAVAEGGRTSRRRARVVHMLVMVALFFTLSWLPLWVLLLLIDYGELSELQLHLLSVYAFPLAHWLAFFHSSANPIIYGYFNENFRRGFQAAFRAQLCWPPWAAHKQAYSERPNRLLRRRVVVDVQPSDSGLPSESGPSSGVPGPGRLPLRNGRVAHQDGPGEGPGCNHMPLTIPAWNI

Compound	Functional Activity rNPFF1 I.A. % [%]
COc1ccc(Br)cc1S(=O)(=O)N[C@@H](CCCNC(=N)N)C(=O)N[C@@H](Cc1ccccc1)C(N)=O [Compound 1025B]	78
COc1ccc(C)cc1S(=O)(=O)N[C@@H](CCCNC(=N)N)C(=O)N[C@@H](Cc1ccccc1)C(N)=O [Compound 2003B]	102
N1-[(1S)-2-Amino-1-benzyl-2-oxoethyl]-(2S)-{[amino(imino)methyl]amino}-2-[pentafluorophenyl)sulfonyl]amino}pentanamide [Compound 1024B]	69

same assay, conditions: Table 4; read-out: Functional Activity rNPFF1 EC50

Compound	EC50 [µM]
COc1ccc(Br)cc1S(=O)(=O)N[C@@H](CCCNC(=N)N)C(=O)N[C@@H](Cc1ccccc1)C(N)=O [Compound 1025B]	0.596
N1-[(1S)-2-Amino-1-benzyl-2-oxoethyl]-(2S)-{[amino(imino)methyl]amino}-2-[pentafluorophenyl)sulfonyl]amino}pentanamide [Compound 1024B]	0.72

same assay, conditions: Table 5; percent of maximum response elicited by neuropeptide FF

Compound	Functional Activity rNPFF1 I.A. % [%]
N=C(N)NCCC[C@H](NS(=O)(=O)c1ccc2ccccc2c1)C(=O)N[C@H](Cc1ccccc1)C(N)=O [Compound 1029B]	30

same assay, conditions: Table 5; read-out: Functional Activity rNPFF1 EC50

Compound	EC50 [µM]
N=C(N)NCCC[C@H](NS(=O)(=O)c1ccc2ccccc2c1)C(=O)N[C@H](Cc1ccccc1)C(N)=O [Compound 1029B]	0.477

same assay, conditions: agonist: IA>15%; antagonist: Ki≦1.2 mM and IA≦15% at the rat cloned NPFF receptors

Compound	classification as agonist or antagonist at the NPFF1 receptor
COc1ccc(C)cc1S(=O)(=O)N[C@@H](CCCNC(=N)N)C(=O)N[C@@H](Cc1ccccc1)C(N)=O [Compound 2003B]	agonists
Cc1ccc2c(C)nc(NC(=N)N)nc2c1 [Compound 3001A, N-(4,7-dimethyl-2-quinazolinyl)guanidine]	antagonists

molecular target: T4, rat NPFF1 receptor; test: Competition binding at cloned rat NPFF1 receptor ([125I]1DMeNPFF displacement); details: Table 4; read-out: Ki Values rNPFF1
Procedure: Transfected cells from culture flasks are scraped into 5 ml of 20 mM Tris-HCl, 5 mM EDTA, pH 7.5, and lysed by sonication. The cell lysates are centrifuged at 1000 rpm for 5 min. at 4° C., and the supernatant is centrifuged at 30,000×g for 20 min. at 4° C. […] Optimal membrane suspension dilutions, defined as the protein concentration required to bind less than 10% of the added radioligand, are […], unlabeled compounds, and binding buffer to a final volume of 250 μl. […]
(§3) Competition assay: 50 pM radioligand, 10-12 points. Binding reaction mixtures are incubated for 2 hr at 25° C., and the reaction stopped by filtration through a double layer of GF filters treated with 0.1% polyethyleneimine, using a cell harvester. Wash buffer: 50 mM Tris-HCl, 0.1% BSA. Radioactivity may be measured by scintillation counting and data are analyzed by a computerized non-linear regression program. Non-specific binding is defined as the amount of radioactivity remaining after incubation of membrane protein in the presence of 1 μM final concentration […]. Protein concentration may be measured by the Bradford method using Bio-Rad Reagent, with bovine serum albumin as a standard.

Compound	Ki [µM]
COc1ccc(Br)cc1S(=O)(=O)N[C@@H](CCCNC(=N)N)C(=O)N[C@@H](Cc1ccccc1)C(N)=O [Compound 1025B]	0.328
N1-[(1S)-2-Amino-1-benzyl-2-oxoethyl]-(2S)-{[amino(imino)methyl]amino}-2-[pentafluorophenyl)sulfonyl]amino}pentanamide [Compound 1024B]	0.486

same assay, conditions: Table 5, D-Arg- or D-Phe-containing compounds; read-out: Ki Values rNPFF1

Compound	Ki [µM]
N=C(N)NCCC[C@H](NS(=O)(=O)c1ccc2ccccc2c1)C(=O)N[C@H](Cc1ccccc1)C(N)=O [Compound 1029B]	0.399

molecular target: T2, rat NPFF2 receptor; test: Competition binding at cloned rat NPFF2 receptor ([125I]1DMeNPFF displacement); details: Table 4; read-out: Ki Values rNPFF2
Procedure: Transfected cells from culture flasks are scraped into 5 ml of 20 mM Tris-HCl, 5 mM EDTA, pH 7.5, and lysed by sonication. The cell lysates are centrifuged at 1000 rpm for 5 min. at 4° C., and the supernatant is centrifuged at 30,000×g for 20 min. at 4° C. […] Optimal membrane suspension dilutions, defined as the protein concentration required to bind less than 10% of the added radioligand, […], unlabeled compounds, and binding buffer to a final volume of 250 μl. In equilibrium saturation binding assays membrane preparations are incubated in the presence of increasing concentrations of [^3H]-labeled compound.
as §3

Compound	Ki [µM]
COc1ccc(Br)cc1S(=O)(=O)N[C@@H](CCCNC(=N)N)C(=O)N[C@@H](Cc1ccccc1)C(N)=O [Compound 1025B]	4.12
COc1ccc(C)cc1S(=O)(=O)N[C@@H](CCCNC(=N)N)C(=O)N[C@@H](Cc1ccccc1)C(N)=O [Compound 2003B]	> 10
N1-[(1S)-2-Amino-1-benzyl-2-oxoethyl]-(2S)-{[amino(imino)methyl]amino}-2-[pentafluorophenyl)sulfonyl]amino}pentanamide [Compound 1024B]	5.4

same assay, conditions: Table 5, D-Arg- or D-Phe-containing compounds; read-out: Ki Values rNPFF2

Compound	Ki [µM]
N=C(N)NCCC[C@H](NS(=O)(=O)c1ccc2ccccc2c1)C(=O)N[C@H](Cc1ccccc1)C(N)=O [Compound 1029B]	2.69
